Molecules are shown by their SMILES. Calls of active or inactive are those of the source. Cut-off read from the data, not from the text of the source, for most assays here: actives have a measured Kd and inactives only a lower limit.

For assay [1], the target named is T1, Uncharacterized protein FLJ45252 (Homo sapiens, UniProt Q6ZSR9).
T1 sequence (Q6ZSR9 whole entry): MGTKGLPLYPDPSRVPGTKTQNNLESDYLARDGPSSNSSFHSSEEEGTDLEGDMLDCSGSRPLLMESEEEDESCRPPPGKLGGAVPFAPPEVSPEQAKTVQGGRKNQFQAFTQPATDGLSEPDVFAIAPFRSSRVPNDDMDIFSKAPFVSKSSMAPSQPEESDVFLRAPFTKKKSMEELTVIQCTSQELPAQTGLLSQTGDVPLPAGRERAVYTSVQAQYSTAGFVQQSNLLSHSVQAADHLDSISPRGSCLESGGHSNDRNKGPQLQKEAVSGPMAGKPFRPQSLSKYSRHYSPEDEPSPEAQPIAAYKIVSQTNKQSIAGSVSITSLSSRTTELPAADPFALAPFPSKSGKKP
The settings on record: read-out: Kd apparent; k-562, colo 205, sk-n-be(2) and mv-4-11.

A further assay addresses T2, Ephrin type-B receptor 3 (Homo sapiens, UniProt P54753).
T2 sequence (P54753 whole entry): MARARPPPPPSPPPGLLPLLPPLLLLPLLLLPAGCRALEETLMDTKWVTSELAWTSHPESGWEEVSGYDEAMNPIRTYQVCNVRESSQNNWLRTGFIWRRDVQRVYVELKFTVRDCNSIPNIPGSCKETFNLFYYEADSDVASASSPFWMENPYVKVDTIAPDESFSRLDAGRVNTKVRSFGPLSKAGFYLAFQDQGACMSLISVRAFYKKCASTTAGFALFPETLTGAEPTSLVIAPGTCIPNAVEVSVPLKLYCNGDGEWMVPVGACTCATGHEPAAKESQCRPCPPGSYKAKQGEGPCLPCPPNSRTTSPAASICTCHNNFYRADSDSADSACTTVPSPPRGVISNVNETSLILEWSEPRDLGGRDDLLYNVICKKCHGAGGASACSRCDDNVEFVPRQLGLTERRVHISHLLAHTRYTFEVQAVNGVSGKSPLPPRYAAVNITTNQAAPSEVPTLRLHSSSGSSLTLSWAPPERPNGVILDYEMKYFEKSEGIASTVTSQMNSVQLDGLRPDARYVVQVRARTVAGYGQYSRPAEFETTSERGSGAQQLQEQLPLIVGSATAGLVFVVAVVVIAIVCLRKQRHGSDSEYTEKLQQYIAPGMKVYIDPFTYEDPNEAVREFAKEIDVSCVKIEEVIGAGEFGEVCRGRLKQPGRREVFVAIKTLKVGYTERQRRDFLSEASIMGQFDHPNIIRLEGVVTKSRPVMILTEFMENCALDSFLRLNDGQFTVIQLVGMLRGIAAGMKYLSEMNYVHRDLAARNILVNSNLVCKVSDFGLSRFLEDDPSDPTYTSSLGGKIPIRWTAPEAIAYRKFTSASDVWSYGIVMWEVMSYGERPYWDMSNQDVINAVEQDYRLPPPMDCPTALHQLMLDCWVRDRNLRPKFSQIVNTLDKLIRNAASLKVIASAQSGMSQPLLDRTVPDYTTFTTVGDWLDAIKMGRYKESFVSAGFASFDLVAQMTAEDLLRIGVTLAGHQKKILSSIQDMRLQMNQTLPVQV

For another assay, the target named is Deoxycytidine kinase (Homo sapiens, UniProt P27707).
For assay [2], the target named is MAP kinase-activated protein kinase 2 (Homo sapiens, UniProt P49137).
For the next assay, the target named is T3, Activin receptor type-1B (Homo sapiens, UniProt P36896).
T3 sequence (P36896 whole entry): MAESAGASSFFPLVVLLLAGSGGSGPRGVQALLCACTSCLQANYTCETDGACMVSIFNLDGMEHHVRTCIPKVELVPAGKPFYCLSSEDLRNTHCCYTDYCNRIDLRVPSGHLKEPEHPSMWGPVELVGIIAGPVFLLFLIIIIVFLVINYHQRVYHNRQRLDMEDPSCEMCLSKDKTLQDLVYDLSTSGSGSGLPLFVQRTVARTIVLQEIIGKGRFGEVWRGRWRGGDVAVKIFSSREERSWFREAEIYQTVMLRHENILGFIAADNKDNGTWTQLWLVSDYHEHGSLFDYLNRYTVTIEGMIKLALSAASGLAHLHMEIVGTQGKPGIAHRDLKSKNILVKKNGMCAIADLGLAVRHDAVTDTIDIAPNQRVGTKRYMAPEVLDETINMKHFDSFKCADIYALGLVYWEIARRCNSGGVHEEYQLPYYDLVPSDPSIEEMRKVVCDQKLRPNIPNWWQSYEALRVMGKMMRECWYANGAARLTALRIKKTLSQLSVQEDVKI

The target of assay [3] is Mitogen-activated protein kinase 8 (Homo sapiens, UniProt P45983).
Assay [4] concerns the target Cyclin-dependent kinase 12 (Homo sapiens, UniProt Q9NYV4).
In assay [5] the target is Ribosomal protein S6 kinase alpha-5 (Homo sapiens, UniProt O75582).
In assay [6] the target is Bone morphogenetic protein receptor type-1A (Homo sapiens, UniProt P36894).
For assay [7], the target named is Dual specificity tyrosine-phosphorylation-regulated kinase 1A (Homo sapiens, UniProt Q13627).
Assay [8] addresses Guanine nucleotide-binding protein G(i) subunit alpha-2 (Homo sapiens, UniProt P04899).
Assay [9] concerns the target T4, AarF domain-containing protein kinase 1 (Homo sapiens, UniProt Q86TW2).
T4 sequence (Q86TW2 whole entry): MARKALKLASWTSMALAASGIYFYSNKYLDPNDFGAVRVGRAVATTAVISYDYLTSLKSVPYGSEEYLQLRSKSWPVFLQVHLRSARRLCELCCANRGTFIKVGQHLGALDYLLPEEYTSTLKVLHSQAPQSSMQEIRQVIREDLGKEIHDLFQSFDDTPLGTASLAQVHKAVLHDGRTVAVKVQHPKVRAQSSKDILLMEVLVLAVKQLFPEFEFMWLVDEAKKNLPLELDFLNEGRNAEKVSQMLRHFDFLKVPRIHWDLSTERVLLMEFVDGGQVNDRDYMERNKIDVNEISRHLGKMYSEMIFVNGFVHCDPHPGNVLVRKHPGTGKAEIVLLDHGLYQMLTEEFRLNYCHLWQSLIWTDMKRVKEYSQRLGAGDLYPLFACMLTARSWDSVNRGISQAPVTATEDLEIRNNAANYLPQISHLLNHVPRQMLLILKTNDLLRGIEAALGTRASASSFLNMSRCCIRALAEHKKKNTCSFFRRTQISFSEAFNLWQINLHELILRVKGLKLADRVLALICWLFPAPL

Assay [10] has as its target Mitotic checkpoint serine/threonine-protein kinase BUB1 (Homo sapiens, UniProt O43683).
Note: in the data inactive means no Kd found up to 30 µM.

Sequence of Bone morphogenetic protein receptor type-1A (P36894 whole entry): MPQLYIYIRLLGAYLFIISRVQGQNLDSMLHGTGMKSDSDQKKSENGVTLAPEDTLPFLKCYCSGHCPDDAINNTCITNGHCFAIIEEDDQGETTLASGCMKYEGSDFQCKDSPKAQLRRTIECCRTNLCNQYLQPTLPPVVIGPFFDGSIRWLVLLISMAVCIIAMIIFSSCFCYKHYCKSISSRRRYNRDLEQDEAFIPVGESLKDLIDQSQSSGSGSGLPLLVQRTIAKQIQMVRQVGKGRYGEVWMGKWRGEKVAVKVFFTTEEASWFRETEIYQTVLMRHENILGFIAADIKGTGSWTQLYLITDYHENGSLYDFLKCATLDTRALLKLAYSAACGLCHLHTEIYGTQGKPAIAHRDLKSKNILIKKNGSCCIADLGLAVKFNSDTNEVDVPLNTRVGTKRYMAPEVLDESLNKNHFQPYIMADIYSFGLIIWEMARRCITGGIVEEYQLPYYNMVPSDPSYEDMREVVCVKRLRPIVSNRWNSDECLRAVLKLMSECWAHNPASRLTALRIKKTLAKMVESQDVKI
Sequence of Guanine nucleotide-binding protein G(i) subunit alpha-2 (P04899 whole entry, the tested form may be a part): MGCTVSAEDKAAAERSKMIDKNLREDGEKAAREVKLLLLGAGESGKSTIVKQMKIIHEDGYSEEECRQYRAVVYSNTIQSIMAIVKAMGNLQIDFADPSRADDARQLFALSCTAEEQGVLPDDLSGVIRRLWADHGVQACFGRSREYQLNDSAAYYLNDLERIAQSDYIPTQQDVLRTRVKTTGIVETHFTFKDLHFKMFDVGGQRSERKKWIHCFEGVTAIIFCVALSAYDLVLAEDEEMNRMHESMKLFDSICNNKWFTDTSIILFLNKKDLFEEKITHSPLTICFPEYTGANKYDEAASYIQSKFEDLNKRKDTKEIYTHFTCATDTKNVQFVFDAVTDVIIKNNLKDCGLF
Sequence of MAP kinase-activated protein kinase 2 (P49137 whole entry): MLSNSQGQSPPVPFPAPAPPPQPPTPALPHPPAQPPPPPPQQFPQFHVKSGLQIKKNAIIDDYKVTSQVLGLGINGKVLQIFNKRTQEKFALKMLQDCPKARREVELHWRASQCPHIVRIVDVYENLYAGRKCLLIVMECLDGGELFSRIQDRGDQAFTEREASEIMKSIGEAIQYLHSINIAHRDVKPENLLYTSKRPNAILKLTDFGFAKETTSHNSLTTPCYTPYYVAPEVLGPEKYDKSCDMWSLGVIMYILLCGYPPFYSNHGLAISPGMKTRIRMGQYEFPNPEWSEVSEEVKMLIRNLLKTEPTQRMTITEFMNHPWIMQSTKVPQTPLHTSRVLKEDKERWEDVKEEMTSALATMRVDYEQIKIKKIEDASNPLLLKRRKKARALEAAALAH
Sequence of Cyclin-dependent kinase 12 (Q9NYV4 whole entry): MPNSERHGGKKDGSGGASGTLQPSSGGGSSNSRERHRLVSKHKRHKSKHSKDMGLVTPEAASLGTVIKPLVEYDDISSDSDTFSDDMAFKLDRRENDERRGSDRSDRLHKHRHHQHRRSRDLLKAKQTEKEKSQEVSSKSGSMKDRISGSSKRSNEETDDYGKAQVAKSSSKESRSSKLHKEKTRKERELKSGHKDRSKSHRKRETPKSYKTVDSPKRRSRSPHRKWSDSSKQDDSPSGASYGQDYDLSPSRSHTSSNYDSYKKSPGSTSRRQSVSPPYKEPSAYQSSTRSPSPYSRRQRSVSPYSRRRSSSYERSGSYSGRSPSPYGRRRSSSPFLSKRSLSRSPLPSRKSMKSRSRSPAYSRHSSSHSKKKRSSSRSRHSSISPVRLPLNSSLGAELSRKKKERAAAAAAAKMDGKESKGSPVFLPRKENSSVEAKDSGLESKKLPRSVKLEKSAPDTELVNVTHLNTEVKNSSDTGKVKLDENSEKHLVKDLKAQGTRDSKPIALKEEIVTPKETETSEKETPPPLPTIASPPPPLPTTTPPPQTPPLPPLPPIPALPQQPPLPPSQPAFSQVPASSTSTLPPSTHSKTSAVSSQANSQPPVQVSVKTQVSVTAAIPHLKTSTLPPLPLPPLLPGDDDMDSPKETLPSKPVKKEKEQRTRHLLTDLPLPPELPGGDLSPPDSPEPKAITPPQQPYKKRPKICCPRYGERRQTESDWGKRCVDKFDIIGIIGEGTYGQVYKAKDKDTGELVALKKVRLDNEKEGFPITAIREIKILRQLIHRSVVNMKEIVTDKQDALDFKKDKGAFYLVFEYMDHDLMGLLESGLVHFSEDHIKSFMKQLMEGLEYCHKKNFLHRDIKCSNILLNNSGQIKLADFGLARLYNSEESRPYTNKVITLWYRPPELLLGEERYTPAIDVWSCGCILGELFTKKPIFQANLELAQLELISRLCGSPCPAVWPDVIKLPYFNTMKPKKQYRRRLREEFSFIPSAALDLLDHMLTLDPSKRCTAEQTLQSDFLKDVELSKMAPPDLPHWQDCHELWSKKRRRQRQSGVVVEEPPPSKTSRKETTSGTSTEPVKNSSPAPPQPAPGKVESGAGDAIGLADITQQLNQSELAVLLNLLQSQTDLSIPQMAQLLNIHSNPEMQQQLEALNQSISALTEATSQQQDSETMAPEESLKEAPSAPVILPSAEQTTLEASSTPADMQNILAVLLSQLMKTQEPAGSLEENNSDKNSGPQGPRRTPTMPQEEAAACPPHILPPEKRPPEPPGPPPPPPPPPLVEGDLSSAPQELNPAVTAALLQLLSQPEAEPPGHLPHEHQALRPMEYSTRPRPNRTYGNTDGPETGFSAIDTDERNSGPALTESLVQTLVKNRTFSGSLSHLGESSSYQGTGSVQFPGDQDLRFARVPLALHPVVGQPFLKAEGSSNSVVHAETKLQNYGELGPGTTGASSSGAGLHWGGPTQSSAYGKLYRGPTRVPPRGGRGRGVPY
Sequence of Mitotic checkpoint serine/threonine-protein kinase BUB1 (O43683 whole entry): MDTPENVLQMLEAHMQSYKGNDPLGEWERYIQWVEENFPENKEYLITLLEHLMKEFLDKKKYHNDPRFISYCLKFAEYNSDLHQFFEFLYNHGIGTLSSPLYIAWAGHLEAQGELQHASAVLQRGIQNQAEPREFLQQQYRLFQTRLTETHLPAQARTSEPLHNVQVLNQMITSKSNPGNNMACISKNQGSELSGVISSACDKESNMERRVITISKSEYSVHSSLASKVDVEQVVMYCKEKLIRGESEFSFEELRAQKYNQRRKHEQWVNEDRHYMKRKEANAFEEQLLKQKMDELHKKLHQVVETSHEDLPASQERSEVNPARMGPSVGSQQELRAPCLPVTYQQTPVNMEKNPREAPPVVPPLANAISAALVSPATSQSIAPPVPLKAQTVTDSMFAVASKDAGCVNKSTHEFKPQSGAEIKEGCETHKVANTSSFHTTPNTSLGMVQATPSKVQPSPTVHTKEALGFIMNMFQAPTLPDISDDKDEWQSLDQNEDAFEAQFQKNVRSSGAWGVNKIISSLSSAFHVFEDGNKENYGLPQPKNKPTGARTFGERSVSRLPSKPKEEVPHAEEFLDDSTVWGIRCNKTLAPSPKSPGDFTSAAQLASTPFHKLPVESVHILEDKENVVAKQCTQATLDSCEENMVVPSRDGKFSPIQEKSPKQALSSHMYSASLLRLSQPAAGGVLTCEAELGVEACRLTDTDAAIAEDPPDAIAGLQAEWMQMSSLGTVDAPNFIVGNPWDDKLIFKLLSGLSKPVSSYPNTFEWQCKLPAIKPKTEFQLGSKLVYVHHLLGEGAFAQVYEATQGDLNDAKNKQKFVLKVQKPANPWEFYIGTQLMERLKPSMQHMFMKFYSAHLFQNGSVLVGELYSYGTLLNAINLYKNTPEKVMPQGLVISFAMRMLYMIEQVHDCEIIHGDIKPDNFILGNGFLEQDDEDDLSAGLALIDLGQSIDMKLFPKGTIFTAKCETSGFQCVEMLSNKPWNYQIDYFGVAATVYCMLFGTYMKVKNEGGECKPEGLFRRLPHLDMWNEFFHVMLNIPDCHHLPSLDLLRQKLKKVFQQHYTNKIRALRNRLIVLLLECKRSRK
Sequence of Mitogen-activated protein kinase 8 (P45983 whole entry): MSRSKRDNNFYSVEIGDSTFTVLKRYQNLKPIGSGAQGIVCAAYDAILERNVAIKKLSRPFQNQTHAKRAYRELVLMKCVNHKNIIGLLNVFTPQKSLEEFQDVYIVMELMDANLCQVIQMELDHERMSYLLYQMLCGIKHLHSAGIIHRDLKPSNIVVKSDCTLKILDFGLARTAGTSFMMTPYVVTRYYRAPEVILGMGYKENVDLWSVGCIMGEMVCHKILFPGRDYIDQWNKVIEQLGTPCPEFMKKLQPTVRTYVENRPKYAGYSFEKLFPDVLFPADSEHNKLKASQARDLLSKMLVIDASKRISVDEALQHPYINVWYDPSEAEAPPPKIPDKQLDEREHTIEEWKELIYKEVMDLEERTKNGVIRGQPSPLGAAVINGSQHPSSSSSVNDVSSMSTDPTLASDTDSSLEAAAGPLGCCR
Sequence of Deoxycytidine kinase (P27707 whole entry): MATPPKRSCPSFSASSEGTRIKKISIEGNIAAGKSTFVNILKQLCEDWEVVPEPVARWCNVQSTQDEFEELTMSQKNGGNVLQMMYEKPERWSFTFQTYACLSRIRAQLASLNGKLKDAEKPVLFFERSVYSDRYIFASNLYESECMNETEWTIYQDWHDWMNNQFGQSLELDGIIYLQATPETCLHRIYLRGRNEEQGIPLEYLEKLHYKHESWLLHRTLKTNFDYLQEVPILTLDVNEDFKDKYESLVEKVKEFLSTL

With `CO[C@H]1C[C@@H]2CC[C@@H](C)[C@@](O)(O2)C(=O)C(=O)N2CCCC[C@H]2C(=O)O[C@H]([C@H](C)C[C@@H]2CC[C@@H](OP(C)(C)=O)[C@H](OC)C2)CC(=O)[C@H](C)/C=C(\C)[C@@H](O)[C@@H](OC)C(=O)[C@H](C)C[C@H](C)/C=C/C=C/C=C/1C` [RIDAFOROLIMUS], the Kd (in assay [1]; on Ephrin type-B receptor 3; at Deoxycytidine kinase; in assay [2]; at Activin receptor type-1B; in assay [3]) was > 30 µM (inactive) throughout. The Kd in assay [4], in [5], in [6], in [7], in assay [8] and in assay [9] was > 30 µM (inactive) in each case. For the same compound, the Kd in assay [10] is > 30 µM (inactive).
For the compound `O=c1[nH]ccc2cc(OC3CCNCC3)ccc12` [SAR-407899 FREE BASE], the Kd in assay [1] was 0.013 µM (active); at Ephrin type-B receptor 3 it was > 30 µM (inactive); on Deoxycytidine kinase, > 30 µM (inactive); in assay [2], > 30 µM (inactive); at Activin receptor type-1B, > 30 µM (inactive); in [3], > 30 µM (inactive). The Kd in assay [4], in [5], in assay [6], in [7], in assay [8] and in assay [9] was > 30 µM (inactive) throughout. Besides, in [10], the Kd is > 30 µM (inactive).
For the compound `CN1CCN(CCOc2cc(OC3CCOCC3)c3c(Nc4c(Cl)ccc5c4OCO5)ncnc3c2)CC1` [SARACATINIB], the Kd in assay [1] is > 30 µM (inactive); on Ephrin type-B receptor 3, > 30 µM (inactive); on Deoxycytidine kinase, > 30 µM (inactive); in assay [2], > 30 µM (inactive); at Activin receptor type-1B, 0.142 µM (active); in assay [3], > 30 µM (inactive). In addition, the Kd in assay [4] was > 30 µM (inactive); in assay [5], > 30 µM (inactive); in assay [6], 0.06 µM (active); in [7], > 30 µM (inactive); in assay [8] it was > 30 µM (inactive); in assay [9], > 30 µM (inactive). Further, in assay [10], the Kd was > 30 µM (inactive).
Regarding `CO[C@H]1C[C@@H]2CC[C@@H](C)[C@@](O)(O2)C(=O)C(=O)N2CCCC[C@H]2C(=O)O[C@H]([C@H](C)C[C@@H]2CC[C@@H](OC(=O)C(C)(CO)CO)[C@H](OC)C2)CC(=O)[C@H](C)/C=C(\C)[C@@H](O)[C@@H](OC)C(=O)[C@H](C)C[C@H](C)/C=C/C=C/C=C/1C` [TEMSIROLIMUS], the Kd (in [1]; on Ephrin type-B receptor 3; at Deoxycytidine kinase; in [2]; on Activin receptor type-1B; in [3]) was > 30 µM (inactive) throughout. Besides, the Kd in assay [4], in [5], in assay [6], in assay [7], in [8] and in assay [9] was > 30 µM (inactive) each time. Moreover, the Kd in assay [10] was > 30 µM (inactive).
As to `COc1cc2c(Nc3ccc(Cl)c(Cl)c3F)ncnc2cc1OC[C@@H]1C[C@@H]2CN(C)C[C@@H]2C1` [TESEVATINIB], the Kd in assay [1] was > 30 µM (inactive); at Ephrin type-B receptor 3 it was > 30 µM (inactive); at Deoxycytidine kinase, > 30 µM (inactive); in assay [2], 1.52 µM (active); at Activin receptor type-1B it was > 30 µM (inactive); in [3], > 30 µM (inactive). The Kd in assay [4], in assay [5], in [6], in [7], in [8] and in [9] was > 30 µM (inactive) throughout. In assay [10], the Kd was > 30 µM (inactive).

(Values after ChEMBL document CHEMBL3991601, “The target landscape of clinical kinase drugs” (Science, 2017).)
